Laboratory results as given in patent publication US20170073306A1, “POTENT INHIBITORS OF HUMAN CARBONIC ANHYDRASE II AND BOVINE CARBONIC ANHYDRASE II AND THEIR MECHANISM OF ACTION” (priority 2015, published 2017).

What was measured:
[1] = molecular target: T1, Bovine Carbonic Anhydrase-II (bovine erythrocyte CA-II) (Bos taurus, UniProt P00921); assay: Bovine carbonic anhydrase-II inhibition, 4-nitrophenyl acetate spectrophotometric assay; format: biochemical; conditions: 4-nitrophenyl acetate 0.7 mM, pH 7.4, 15 min preincubation; read-out: IC50 ± S.E.M. BCA-II
T1 construct: pure bovine erythrocyte CA-II; from tissue; host or cells: bovine erythrocytes
Procedure: (§1) Nineteen different analogues of benzamide sulfonamides were evaluated for carbonic anhydrase-II inhibition. The rate of catalyzed reaction was monitored by the amount of product formation by using the chromogenic substrate i.e., 4-nitrophenyl acetate.
4-Nitrophenyl acetate (4-NPA) is a colorless compound which is used as a substrate in carbonic anhydrase inhibition assay. The reaction involves the hydrolysis of 4-nitrophenyl acetate into […] and 4-nitrophenol a yellow colored compound. During this experiment, HEPES-tris buffer was used at 20 mM concentration with pH 7.4.
After 15 min of incubation of the enzyme with the test compound, the substrate was added to initiate the reaction. The reaction was carried out in triplicate with different concentrations of test compounds was used.
In this assay protocol, the reaction was performed by using a 96-well flat bottom plate.
The amount of product formation was measured at 400 nm for 30 min with 1 min interval, multiplate reader SPECTRA max 340 (Molecular Devices, CA, USA) was used to monitor the product formation.
The enzyme inhibitory activities were calculated using the following formula:
% Inhibition=100−(O.D of test/O.D of control)*100
(§2) Where test is the enzyme activity with sample and control is the enzyme activity without sample. The IC50 of the compounds were calculated by using EZ-Fit Enzyme Kinetic Program (Perrella Scientific Inc. Amhrest, U.S.A).

[2] = molecular target: T2, Human Carbonic Anhydrase-II (human erythrocyte CA-II) (Homo sapiens, UniProt P00918); assay: HCA-II inhibitory activity, 4-nitrophenyl acetate spectrophotometric assay; format: biochemical; conditions: 4-nitrophenyl acetate 0.7 mM, pH 7.4, 25° C., 15 min preincubation; read-out: IC50 ± S.E.M. HCA-II
T2 construct: purified human erythrocyte CA-II; from tissue; host or cells: human erythrocytes
Procedure: as §1
Hydrolysis of 4-NPA (a colorless compound): yields 4-nitrophenol and […]. The reaction is monitored by quantifying the formation of 4-nitrophenol, a yellow colored compound.
In successive experiments, HEPES-tris was used as a buffer for the reaction at final concentration of 20 mM, with 7.4 pH. The total reaction volume of 200 μL includes, 140 μL of the HEPES-tris, 20 μL of test compound diluted in DMSO (20 μL of DMSO as a control sample), 20 μL of purified human erythrocyte CA-II (0.1 mg/mL) prepared in deionized water and 20 μL of a solution of 4-NPA (0.7 mM diluted in ethanol). Adhesion of enzyme with the plastic-ware was avoided by the addition of bovine serum albumin (1 mg/mL).
The 20 μL of test compound was incubated with enzyme for a period of 15 min. The rate of product formation was monitored with the addition of 20 μL substrate prepared in ethanol at a final concentration of 0.7 mM 4-nitrophenyl acetate at 25° C. for a period of 30 min with regular interval of 1 min.
The assay was performed in triplicates by using 96-well flat bottom plate.
The enzyme inhibitory activities were calculated using the following formula: […]
as §2

[3] = MTT cytotoxicity assay; format: cell-based; conditions: mouse, 3T3 mouse fibroblast cells, 3T3 cells, 50% growth inhibition, read-out: Cytotoxicity IC50 ± SD
Procedure: Cytotoxicity studies were performed using a colorimetric assay that measures the reduction of 3-(4,5-dimethythiazol-2-yl)-2,5-diphenyl tetrazolium bromide (MTT) (yellow in color), by mitochondrial enzyme (i.e. succinate dehydrogenase). The MTT enters into the mitochondria of cell, where it is reduced to an insoluble formazan salt (purple in color). The extent of MTT reduction to formazan within cells was measured spectrophotometrically. As reduction of MTT can only occur in metabolically active cells the level of activity is actually a measure of the viability of the cells^22.
Mouse fibroblast cell line 3T3 was cultured in DMEM, supplemented with 5% of FBS, 100 IU/ml of penicillin and 100 μg/ml of streptomycin, and kept at 37° C. in 5% CO2 incubator. For the preparation of cell culture 100 μL/well of cell solution (5×10^4 cells/ml) was added into 96-well plate. The plate was incubated for overnight, and fresh medium was added after the removal of old medium. The test compounds were also added in different concentrations into the plate and plate was again incubated for 48 hrs. After the completion of this incubation period 200 μL MTT (0.5 mg/ml) was added and plate was again incubated for 4 hrs, after this final incubation 100 μL of DMSO was added to each well. The level of MTT reduction to formazan was evaluated by change in absorbance at 540 nm using a micro plate reader (Spectra Max plus, Molecular Devices, CA, USA).

[4] = molecular target: T3, Bovine Carbonic Anhydrase-II (Bos taurus, UniProt P00921); assay: Kinetics studies (Lineweaver-Burk, Dixon plots) against Bovine Carbonic Anhydrase-II; format: biochemical; design: Vmax app: unit not given here
T3 construct: pure bovine erythrocyte CA-II; from tissue; host or cells: bovine erythrocytes
Procedure: FIG. 2B depicts the double reciprocal plot for Ki determination which is between Slope Vs Inhibitor Conc.
FIG. 3B depicts the double reciprocal plot for Ki determination which is between Slope Vs Inhibitor Conc.
Kinetics studies were performed for each analogue. […] The Grafit version 7.0 was used for the construction of Lineveawer-Burk plots and their secondary replots.

T3 sequence (P00921 whole entry): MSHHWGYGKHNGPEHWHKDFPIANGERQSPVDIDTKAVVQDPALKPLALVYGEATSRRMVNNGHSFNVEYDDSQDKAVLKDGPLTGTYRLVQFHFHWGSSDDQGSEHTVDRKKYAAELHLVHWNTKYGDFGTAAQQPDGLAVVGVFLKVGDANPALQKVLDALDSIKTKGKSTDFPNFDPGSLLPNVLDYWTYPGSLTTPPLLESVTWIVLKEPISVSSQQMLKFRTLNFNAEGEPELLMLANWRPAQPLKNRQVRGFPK
T1 sequence (P00921 whole entry): as above

IC50 [1]: 60 ± 1 nM
IC50 [2]: 100 ± 40 nM
Vmax app ([4]; apparent Vmax with inhibitor (0.2-0.00625 μM)): 12.33
Vmax ([4]; enzyme Vmax without inhibitor): 79.36 (μM/L/min)^−1
Ki ([4]; from secondary replots / Dixon plot, read-out: Ki): 46 nM
SMILES: NS(=O)(=O)c1ccc(NC(=S)NC(=O)c2ccc(Cl)cc2Cl)cc1 [Compound 19, 2,4-Dichloro-N-(4-sulfamoylphenylcarbamothioyl)benzamide]
IC50 at 48 h [3]: > 30000 nM
